Data taken from patent US11135236B2, “Retinoic acid receptor gamma agonists to attenuate anthracycline-induced cardiotoxicity” (Northwestern University, priority 2018, dated 2021).

Legend:
[1] = system: RARG-KO hiPSC-CMs; experiment: hiPSC-CM cell viability after 72 h doxorubicin (CellTiter-Glo); format: cell-based, human
Protocol: (§1) 384-well plate-based cell viability, caspase 3/7 activity, and reactive oxygen species (ROS) assays. […] Luminescence was measured using a VarioSkan Lux Multi-Mode Reader (Thermo Scientific) with an integration time of 0.25 sec. 10 μM staurosporine (MedChemExpress) was used as a positive control. […] 10 μM staurosporine and 50 μM menadione (both MedChemExpress) was used as a positive control, respectively. Data were analyzed using Prism 7.0 software (GraphPad) using standard dose-response guidelines.

[2] = system: MDA-MB-231; experiment: breast cancer cell viability after 72 h of doxorubicin and RARG agonists co-treatment; details: MDA-MB-231, doxorubicin 72 h, Vehicle (no agonist)
Protocol: as §1
(§2) Breast cancer cell lines. Four human breast cancer cell lines were used, MCF7 (adenocarcinoma, ATCC HTB-22) and Hs 578T (carcinsarcoma, ATCC HTB-126) both cultured in RPMI 1640 (Corning) with 10% FBS (Opti-Gold, GenDEPOT), MDA-MB-231 (adenocarcinoma, ATCC HTB-26) and MDA-MB-468 (adenocarcinoma, ATCC HTB-131) both cultured in DMEM (Corning) with 10% FBS. All cells were cultured on uncoated tissue culture plates (Greiner) and passaged with TrypLE Express (Gibco).

[3] = system: hiPSC-CMs; experiment: reactive oxygen species assay (ROS-Glo H2O2); format: cell-based, human; details: isogenic hiPSC-CMs, 24 h doxorubicin
Protocol: as §1

[4] = system: RARG-OE hiPSC-CMs; experiment: hiPSC-CM cell viability after 72 h doxorubicin (CellTiter-Glo); format: cell-based, human
Protocol: as §1

[5] = system: C57BL/6J Mice; experiment: mouse model of doxorubicin-induced cardiomyopathy, echocardiography; format: in vivo; details: doxorubicin 3 mg kg^−1 intraperitoneal twice weekly for 3 weeks
Text: Mouse model of doxorubicin-induced cardiomyopathy and drug administration. […] For the control group, we treated mice with corn oil in the same schedule as agonist administration. We recorded an echocardiogram once a week (day 0, day 7, day 14, and day 21) and terminated the experiment at day 21. Hearts were harvested for western blot analyses as mentioned above.
Echocardiographic evaluation. Mice were studied at baseline and weekly during the protocol under light anesthesia with isoflurane (induction 3%, maintenance 1.5%). 2D images in the parastemal short axis were obtained with a GE Vivid 7 ultrasound system (GE Healthcare) equipped with a 13 MHz transducer. Left ventricular end-systolic (LVESD) and end-diastolic (LVEDD) dimensions were measured and left ventricular fractional shortening (FS) was calculated.

[6] = system: RARG-WT hiPSC-CMs; experiment: caspase 3 and 7 activity after 24 h doxorubicin (Caspase 3/7-Glo); format: cell-based, human
Protocol: as §1

[7] = system: RARG-KO hiPSC-CMs; experiment: as above; format: cell-based, human
Protocol: as §1

[8] = system: RARG-OE hiPSC-CMs; experiment: as above; format: cell-based, human
Protocol: as §1

[9] = system: MCF7; experiment: breast cancer cell viability after 72 h of doxorubicin and RARG agonists co-treatment; format: cell-based, human; details: MCF7, doxorubicin 72 h, Vehicle (no agonist)
Protocol: as §1, §2

[10] = system: RARG-WT hiPSC-CMs; details: doxorubicin LD50, agonist 0 μM, 72 h
Protocol: as §1

[11] = system: hiPSC-CMs; experiment: RNA-seq gene expression analysis of hiPSC-CMs after doxorubicin; details: 1 μM doxorubicin, 24 h
Text: RNA-seq gene expression analysis. […] RNA was extracted using TRI Reagent and Direct-zol RNA microprep kit (both Zymo) including on-column DNase digestion to remove genomic DNA. Samples were quantified using an Agilent 2100 Bioanalyzer and passed QC. Library preparation was done using a TruSeq RNA v2 kit (Illumina) and sequencing with NextSeq 500 instrument (Illumina) by Northwestern's NuSeq core facility, generating ˜40 million single-end 75 bp reads for each sample. Reads were mapped to the GRCh38 reference human genome using Subread software (Liao et al., 2013). Gene expression levels and exon usage were estimated using featureCounts function in the Subread software (Liao et al., 2013). Differential gene expression analysis was done using Deseq2 package (Love et al., 2014) and R (v3.3.3).

[12] = system: control hiPSC-CMs; experiment: hiPSC-CM cell viability after 72 h doxorubicin (CellTiter-Glo); format: cell-based, human
Protocol: as §1

## COc1cccc2c1C(=O)c1c(O)c3c(c(O)c1C2=O)C[C@@](O)(C(=O)CO)C[C@@H]3O[C@H]1C[C@H](N)[C@H](O)[C@H](C)O1 [doxorubicin]
[1]
  LD50, cell viability: 1.582 µM
[2]
  LD50: 1.301 µM
[3]
  ROS production: concentration-dependent increase in ROS production
[4]
  LD50, cell viability: 2.724 µM
[5]
  cardiac function, as assessed by fractional shortening: steady decline in cardiac function
[6]
  LD50, caspase 3 and 7 activity: 0.683 µM
[7]
  LD50, caspase 3 and 7 activity: 0.314 µM
[8]
  LD50, caspase 3 and 7 activity: 1.83 µM
[9]
  LD50: 0.490 µM
[10]
  RARG-WT: LD50: 0.469 µM
[11]
  Log2fc AC009014.3: 5.25
  Log2fc AC010136.2: −3.13
  Log2fc ADCYAP1R1: 6.25
  Log2fc AL591893.1: 6.49
  Log2fc BUB1B: −2.89
  Log2fc C11orf87: −3.03
  Log2fc CA7: 5.41
  Log2fc CAV3: −3.53
  Log2fc CCDC60: 4.98
  Log2fc CCDC178: 5.45
  Log2fc CENPA: −2.97
  Log2fc CENPE: −3.10
  Log2fc CENPI: −3.23
  Log2fc CHI3L2: 5.04
  Log2fc CLCA2: 5.42
  Log2fc CMB9.22P13.2: 4.99
  Log2fc CRTAC1: 5.32
  Log2fc CSTA: 5.15
  Log2fc CTD.2083E4.7: −3.85
  Log2fc CYP2J2: −2.82
  Log2fc DAND5: −4.17
  Log2fc DIRAS2: −3.30
  Log2fc DOK7: −3.42
  Log2fc DORAS1: −2.90
  Log2fc EN2: 4.93
  Log2fc ETV7: 6.04
  Log2fc FABP5P3: 4.97
  Log2fc FAM196A: 6.36
  Log2fc FBXL22: −2.80
  Log2fc FBXO40: −2.86
  Log2fc FOXD3: 5.31
  Log2fc FUT1: −2.91
  Log2fc GCK: −3.14
  Log2fc GDNF: 5.54
  Log2fc GPR87: 6.48
  Log2fc GRHL3: 5.45
  Log2fc HIST1H2AG: 5.29
  Log2fc HIST1H2AI: 5.70
  Log2fc HIST1H2BF: 6.22
  Log2fc HIST1H2BG: 4.94
  Log2fc HIST1H3A: 5.14
  Log2fc HIST1H3H: 5.59
  Log2fc HIST1H3J: 5.16
  Log2fc HIST1H4B: 5.29
  Log2fc HPR: −3.01
  Log2fc HRK: −3.01
  Log2fc IGFL3: 5.18
  Log2fc INSM1: 4.97
  Log2fc KCNK3: −3.07
  Log2fc KCNK10: 6.80
  Log2fc KIF18B: −2.86
  Log2fc LINC01164: 4.96
  Log2fc LINC01224: −3.31
  Log2fc LINC01489: −3.45
  Log2fc LRRC10: −3.05
  Log2fc LRRC14B: −4.13
  Log2fc MIR145: −3.74
  Log2fc NEIL3: −2.89
  Log2fc NFE2: −3.03
  Log2fc NHLH2: 7.10
  Log2fc NKX1.2: 5.72
  Log2fc NMUR1: −2.85
  Log2fc NOTO: 5.13
  Log2fc NPBWR1: 5.06
  Log2fc NUF2: −2.87
  Log2fc PAX5: 6.11
  Log2fc PEG13: −3.16
  Log2fc POU3F1: 7.21
  Log2fc PRSS42: −2.89
  Log2fc PRSS44: −3.02
  Log2fc RP1.34B20.4: 5.94
  Log2fc RP1.46F2.3: −3.03
  Log2fc RP3.326I13.1: 5.19
  Log2fc RP3.412A9.12: −2.87
  Log2fc RP4.794I6.4: 5.33
  Log2fc RP5.1139B12.4: −3.80
  Log2fc RP5.1148A21.3: 5.37
  Log2fc RP5.884C9.2: 5.53
  Log2fc RP11.108M9.3: −4.12
  Log2fc RP11.1149O23.2: 5.86
  Log2fc RP11.19O2.1: −3.69
  Log2fc RP11.234B24.2: −2.89
  Log2fc RP11.529G21.2: 5.03
  Log2fc RP11.712B9.2: 5.10
  Log2fc RPL7P3: −3.03
  Log2fc SEC14L5: −3.33
  Log2fc SLC4A11: 5.81
  Log2fc SLC5A1: −2.94
  Log2fc TFAP2C: 4.93
  Log2fc TGFB111: −2.77
  Log2fc TMEM72: −2.93
  Log2fc TMEM88: −2.81
  Log2fc TMEM158: 5.19
  Log2fc TMEM229B: 4.99
  Log2fc TNFRSF10A: 5.25
  Log2fc UTS2R: −3.09
  Log2fc XIRP2: −2.88
  Log2fc ZNF385C.1: −3.34
[11]; RNA-seq
  genes associated with apoptosis, DNA damage, oxidative stress, and doxorubicin resistance: significant upregulation
  genes associated with cardiac function: downregulation
[12]
  half-maximal lethal dose (LD50), cell viability: 2.622 µM
